Results published in ChEMBL document CHEMBL5154862, “Structure-Based Discovery of MDM2/4 Dual Inhibitors that Exert Antitumor Activities against MDM4-Overexpressing Cancer Cells” (J Med Chem, 2022).
Activity calls are given as the source filed them. The calls are words filed in the database; no cut-off is given here.

Legend:
[1] = AUC in ICR mouse at 15 mg/kg, po measured upto 24 hrs by LC-MS/MS analysis; type: ADME, organism-based; set-up: time < 24 hrs, dose 15 mg/kg, route po; details: in vivo
[2] = test system: U2OS; experiment: Upregulation of p21 protein expression in human U2OS cells at 2.5 uM measured after 24 hrs by Western blot analysis; type: functional, cell-based
[3] = test system: U2OS; experiment: Upregulation of MDM2 protein expression in human U2OS cells at 2.5 uM measured after 24 hrs by Western blot analysis; type: functional, cell-based
[4] = test system: U2OS; experiment: Upregulation of p53 protein expression in human U2OS cells at 2.5 uM measured after 24 hrs by Western blot analysis; type: functional, cell-based
[5] = test system: RKO; experiment: Upregulation of MDM2 gene expression in human RKO cells at 0.31 uM incubated for 24 hrs by qPCR analysis; type: functional, cell-based
[6] = test system: RKO; experiment: Upregulation of p21 gene expression in human RKO cells at 0.31 uM incubated for 24 hrs by qPCR analysis; type: functional, cell-based
[7] = test system: NCI-H460; experiment: Upregulation of MDM2 protein expression in human NCI-H460 cells at 2.5 uM measured after 24 hrs by Western blot analysis; type: functional, cell-based
[8] = test system: HCT-116; experiment: Upregulation of p53 protein expression in human HCT-116 cells at 2.5 uM measured after 24 hrs by Western blot analysis; type: functional, cell-based
[9] = test system: HCT-116; experiment: Upregulation of MDM2 protein expression in human HCT-116 cells at 2.5 uM measured after 24 hrs by Western blot analysis; type: functional, cell-based
[10] = test system: NCI-H460; experiment: Upregulation of p53 protein expression in human NCI-H460 cells at 2.5 uM measured after 24 hrs by Western blot analysis; type: functional, cell-based
[11] = test system: RKO; experiment: Induction of cell cycle arrest in human RKO cells assessed as effect on cell cycle distribution incubated for 24 hrs by FACSCalibur flow cytometry analysis; type: functional, cell-based; details: dose 6.25-25 µM, DDE = dose-dependent effect
[12] = test system: U2OS; experiment: Effect on MDM4 protein expression in human U2OS cells at 2.5 uM measured after 24 hrs by Western blot analysis; type: functional, cell-based
[13] = test system: MCF7; experiment: Effect on MDM4 protein expression in human MCF7 cells at 2.5 uM measured after 24 hrs by Western blot analysis; type: functional, cell-based
[14] = test system: NCI-H460; experiment: Downregulation of MDM4 protein expression in human NCI-H460 cells at 2.5 uM measured after 24 hrs by Western blot analysis; type: functional, cell-based
[15] = molecular target: Cellular tumor antigen p53 (Homo sapiens) (UniProt P04637); experiment: Activation of p53 pathway in human HCT-116 cells incubated for 24 hrs by Western blot analysis; type: cell-based; details: filed as activator, dose 0.078125-2.5 µM, DDE = dose-dependent effect
[16] = test system: HCT-116; experiment: Induction of PARP cleavage in human HCT-116 cells incubated for 24 hrs by Western blot analysis; type: functional, cell-based; details: dose 0.078125-2.5 µM, DDE = dose-dependent effect
[17] = test system: RKO; experiment: Upregulation of p53 expression in human RKO cells incubated for 24 hrs by Western blot analysis; type: functional, cell-based; details: dose 0.3125-2.5 µM, DDE = dose-dependent effect
[18] = test system: RKO; experiment: Upregulation of p21 expression in human RKO cells incubated for 24 hrs by Western blot analysis; type: functional, cell-based; details: dose 0.3125-2.5 µM, DDE = dose-dependent effect
[19] = test system: RKO; experiment: Upregulation of MDM2 expression in human RKO cells incubated for 24 hrs by Western blot analysis; type: functional, cell-based; details: dose 0.3125-2.5 µM, DDE = dose-dependent effect
[20] = test system: RKO; experiment: Downregulation of MDM4 expression in human RKO cells at 0.3125 to 2.5 uM incubated for 24 hrs by Western blot analysis; type: functional, cell-based; details: dose 0.3125-2.5 µM
[21] = test system: RKO; experiment: Induction of PARP cleavage in human RKO cells at 0.3125 to 2.5 uM incubated for 24 hrs by Western blot analysis; type: functional, cell-based; details: dose 0.3125-2.5 µM
[22] = test system: RKO; experiment: Upregulation of MDM2 gene expression in human RKO cells incubated for 24 hrs by qPCR analysis; type: functional, cell-based; details: dose 0.3125-2.5 µM, DDE = dose-dependent effect
[23] = test system: RKO; experiment: Upregulation of PUMA gene expression in human RKO cells incubated for 24 hrs by qPCR analysis; type: functional, cell-based; details: dose 0.3125-2.5 µM, DDE = dose-dependent effect
[24] = test system: RKO; experiment: Antitumor activity against human RKO cells xenografted in BALB/c mouse assessed as tumor growth inhibition at 50 mg/kg, po qd administered via gavage for 21 consecutive days and measured on day 21 relative to control; type: functional; details: 504 h, time 21 day, read-out: TGI
[25] = test system: RKO; experiment: Induction of apoptosis in human RKO cells assessed as viable cells at 6.25 uM measured after 48 hrs by Annexin V-FITC/PI staining based flow cytometry analysis (reference value: 93.54 %); type: functional; details: read-out: Activity
[26] = test system: RKO; experiment: Induction of apoptosis in human RKO cells assessed as early apoptotic cells at 6.25 uM measured after 48 hrs by Annexin V-FITC/PI staining based flow cytometry analysis (reference value: 3.56 %); type: functional
[27] = test system: RKO; experiment: Induction of apoptosis in human RKO cells assessed as late apoptotic cells at 6.25 uM measured after 48 hrs by Annexin V-FITC/PI staining based flow cytometry analysis (reference value: 0.82 %); type: functional
[28] = test system: RKO; experiment: Induction of apoptosis in human RKO cells assessed as necrotic cells at 6.25 uM measured after 48 hrs by Annexin V-FITC/PI staining based flow cytometry analysis (reference value: 2.08 %); type: functional
[29] = test system: RKO; experiment: Induction of apoptosis in human RKO cells assessed as viable cells at 12.5 uM measured after 48 hrs by Annexin V-FITC/PI staining based flow cytometry analysis (reference value: 93.54 %); type: functional; details: read-out: Activity
[30] = test system: RKO; experiment: Induction of apoptosis in human RKO cells assessed as early apoptotic cells at 12.5 uM measured after 48 hrs by Annexin V-FITC/PI staining based flow cytometry analysis (reference value: 3.56 %); type: functional
[31] = test system: RKO; experiment: Induction of apoptosis in human RKO cells assessed as necrotic cells at 12.5 uM measured after 48 hrs by Annexin V-FITC/PI staining based flow cytometry analysis (reference value: 2.08 %); type: functional
[32] = test system: RKO; experiment: Induction of apoptosis in human RKO cells assessed as viable cells at 25 uM measured after 48 hrs by Annexin V-FITC/PI staining based flow cytometry analysis (reference value: 93.54 %); type: functional; details: read-out: Activity
[33] = test system: RKO; experiment: Induction of apoptosis in human RKO cells assessed as early apoptotic cells at 25 uM measured after 48 hrs by Annexin V-FITC/PI staining based flow cytometry analysis (reference value: 3.56 %); type: functional
[34] = test system: RKO; experiment: Induction of apoptosis in human RKO cells assessed as late apoptotic cells at 25 uM measured after 48 hrs by Annexin V-FITC/PI staining based flow cytometry analysis (reference value: 0.82 %); type: functional
[35] = test system: RKO; experiment: Induction of apoptosis in human RKO cells assessed as necrotic cells at 25 uM measured after 48 hrs by Annexin V-FITC/PI staining based flow cytometry analysis (reference value: 2.08 %); type: functional
[36] = test system: HCT-116; experiment: cells; details: Homo sapiens, HCT-116, 96 h
[37] = test system: RKO; experiment: cells; details: Homo sapiens, 96 h
[38] = test system: MCF7; experiment: cells; details: Homo sapiens, MCF7, 96 h
[39] = test system: HeLa; experiment: cells; details: Homo sapiens, 96 h
[40] = test system: SW480; experiment: cells; details: Homo sapiens, SW480, 96 h

Sequence of Cellular tumor antigen p53 (Homo sapiens) (P04637 whole entry, looked up): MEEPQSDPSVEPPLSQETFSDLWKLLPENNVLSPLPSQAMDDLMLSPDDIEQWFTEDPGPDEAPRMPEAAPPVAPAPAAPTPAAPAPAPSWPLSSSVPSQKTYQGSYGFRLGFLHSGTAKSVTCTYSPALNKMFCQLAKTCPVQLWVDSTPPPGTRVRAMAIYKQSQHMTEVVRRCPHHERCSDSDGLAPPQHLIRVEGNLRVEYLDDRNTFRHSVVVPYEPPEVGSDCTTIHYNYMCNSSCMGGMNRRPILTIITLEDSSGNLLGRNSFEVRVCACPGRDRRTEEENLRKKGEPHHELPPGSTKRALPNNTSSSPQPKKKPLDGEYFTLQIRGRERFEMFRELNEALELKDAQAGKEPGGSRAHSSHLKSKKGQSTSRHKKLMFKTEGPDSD

COc1cc(C(=O)O)ccc1NC(=O)[C@@H]1N[C@@H](CC(C)(C)C)[C@](CNCc2ccncc2)(c2ccc(Cl)cc2F)[C@H]1c1cccc(Cl)c1F
AUC at 24 h [1]: 1990 ng·h/mL
Activity [2]: Active
Activity [3]: Active
Activity [4]: Active
Activity [5]: Active
Activity [6]: Active
Activity [7]: Active
Activity [8]: Active
Activity [9]: Active
Activity [10]: Active
Activity [11]: Dde
Activity [12]: Active
Activity [13]: Active
Activity [14]: Active
Activity [15]: Dde
Activity [16]: Dde
Activity [17]: Dde
Activity [18]: Dde
Activity [19]: Dde
Activity [20]: Active
Activity [21]: Active
Activity [22]: Dde
Activity [23]: Dde
inhibition in vivo at 50 mg/kg [24]: 5%
viability at 6.25 µM [25]: 74.5%
Activity [26]: 6.28%
Activity [27]: 3.15%
Activity [28]: 16.09%
viability at 12.5 µM [29]: 85%
Activity [30]: 9.54%
Activity [31]: 1.6%
viability at 25 µM [32]: 7.52%
Activity [33]: 34.16%
Activity [34]: 57.01%
Activity [35]: 1.31%
IC50 [36]: 50.7 nM
IC50 [37]: 200 nM
IC50 [38]: 520 nM
IC50 [39]: 7370 nM
IC50 [40]: 2820 nM
